# Test results as given in ChEMBL document CHEMBL1134440, “Discovery of 4-amino-5-(3-bromophenyl)-7-(6-morpholino-pyridin-3-yl)pyrido[2,3-d]pyrimidine, an orally active, non-nucleoside adenosine kinase inhibitor” (J Med Chem, 2001).
# Key:
# Adenosine kinase [1] = biological target: Adenosine kinase (Homo sapiens, UniProt P55263); assay: Inhibition of adenosine phosphorylation in confluent IMR-32 (human neuroblastoma) cells.; assay type: functional, cell-based
# Adenosine kinase [2] = biological target: Adenosine kinase (Rattus norvegicus, UniProt Q64640); assay: In vitro inhibition of Adenosine kinase (AK)
# Chain of Adenosine kinase (Rattus norvegicus, UniProt Q64640) (Q64640 whole entry): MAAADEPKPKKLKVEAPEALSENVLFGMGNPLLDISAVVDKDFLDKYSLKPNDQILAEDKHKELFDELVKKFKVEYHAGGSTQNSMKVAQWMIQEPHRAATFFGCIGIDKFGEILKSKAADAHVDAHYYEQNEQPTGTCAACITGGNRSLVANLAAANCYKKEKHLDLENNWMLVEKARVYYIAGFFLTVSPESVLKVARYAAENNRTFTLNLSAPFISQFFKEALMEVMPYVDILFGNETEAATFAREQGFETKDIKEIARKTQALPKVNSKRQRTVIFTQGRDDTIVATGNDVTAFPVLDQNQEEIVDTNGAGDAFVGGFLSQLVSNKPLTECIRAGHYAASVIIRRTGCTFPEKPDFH
# Chain of Adenosine kinase (Homo sapiens, UniProt P55263) (P55263 whole entry): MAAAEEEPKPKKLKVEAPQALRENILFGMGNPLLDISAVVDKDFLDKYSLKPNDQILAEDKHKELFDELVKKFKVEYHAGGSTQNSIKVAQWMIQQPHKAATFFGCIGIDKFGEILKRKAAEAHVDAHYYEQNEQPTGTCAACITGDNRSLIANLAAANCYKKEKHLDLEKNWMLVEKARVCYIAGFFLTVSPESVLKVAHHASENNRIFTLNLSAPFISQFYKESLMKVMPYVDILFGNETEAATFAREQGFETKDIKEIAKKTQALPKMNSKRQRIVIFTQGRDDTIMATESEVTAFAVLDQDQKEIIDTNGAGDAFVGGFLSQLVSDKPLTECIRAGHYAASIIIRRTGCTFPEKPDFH
Compound,IC50 (Adenosine kinase [1]) [µM],IC50 (Adenosine kinase [2]) [µM]
COc1ccc(-c2cc3c(N)ncnc3nc2-c2ccc(N(C)C)cc2)cc1,0.567,0.0917
CN(C)c1ccc(-c2nc3ncnc(N)c3cc2-c2ccc(C(C)(C)C)cc2)cc1,> 1,0.0625
CN(C)c1ccc(-c2cnc3c(N)ncnc3n2)cc1,3.6,0.44
Nc1ncnc2nc(-c3ccc(N4CCOCC4)cc3)cnc12,1,0.4
COc1ccc(-c2cnc3c(N)ncnc3n2)cc1,> 10,2
Nc1ncnc2nc(-c3ccc([N+](=O)[O-])cc3)cnc12,> 10,4.75
NC[C@H]1O[C@@H](n2cnc3c(N)ncnc32)[C@H](O)[C@@H]1O,6.33,0.015
CN(C)c1ccc(-c2cc(C3CCCCC3)c3c(N)ncnc3n2)cc1,0.467,0.0083
Cc1ccc(-c2cc3c(N)ncnc3nc2-c2ccc(N(C)C)cc2)cc1,0.5,0.0733
Nc1ccc(-c2cnc3c(N)ncnc3n2)cc1,> 10,1.75
COC(=O)c1cccc(-c2cc3c(N)ncnc3nc2-c2ccc(N(C)C)cc2)c1,0.7,0.0667
Nc1ncnc(N[C@@H]2O[C@H](CO)[C@@H](O)[C@H]2O)c1[N+](=O)[O-],26,2
CN(C)c1ccc(-c2ccc3c(N)ncnc3n2)cc1,> 10,0.773
Nc1ncnc2nc(-c3ccccc3)cnc12,> 10,5.5

# Second part, the compound after the results:
IC50 (Adenosine kinase [1]) [µM],IC50 (Adenosine kinase [2]) [µM],Compound
0.467,,CN(C)c1ccc(-c2cc(-c3ccccc3)c3c(N)ncnc3n2)cc1
0.05,0.0017,Nc1ncnc2nc(-c3ccc(N4CCOCC4)nc3)cc(-c3cccc(Br)c3)c12
0.134,0.0028,C[C@H]1O[C@@H](n2cc(-c3ccccc3)c3c(Nc4ccc(F)cc4)ncnc32)[C@H](O)[C@@H]1O
0.167,,CN(C)c1ccc(-c2cc(-c3cccc(Br)c3)c3c(N)ncnc3n2)cc1
0.333,0.025,CN(C)c1ccc(-c2nc3ncnc(N)c3nc2-c2ccccc2)cc1
0.032,0.0018,CN(C)c1ccc(-c2cc(-c3cccc(Br)c3)c3c(N)ncnc3n2)cn1
